# Test results: patent US8138314B2, “Compositions and methods of monoclonal and polyclonal antibodies specific for T cell subpopulations” (Beth Israel Deaconess Medical Center, Inc., priority 2000, dated 2012)
# What was measured:
# invariant NK T cells = assay: 6B11 FACS sort or magnetic bead immunoaffinity purification of PBMC followed by expansion; assay type: cell-based, human; conditions: for Yield of invariant T cells: addition during expansion of 6B11 bead purified cells (FIGS. 12-17)
# Protocol: Starting with PBMC in which approximately 0.05% of the lymphocytes in PBMC are invariant T cells, approximately 5-30% of the purified and expanded cells were invariant T cells.
# PBMC or another tissue source is blocked with autologous serum at 4° C. An antibody reactive with invariant T cells (e.g., 6B11 or 3A6 antibody) is added at a ratio of about 1-10 μg antibody/10^7-8 PBMC and incubated for 20 minutes at 4° C. The antibody used in this method may be directly labeled with a conjugate such as FITC or biotin, or the antibody may be indirectly labeled with second reagent (e.g., anti-IgG-Fluorochrome or streptavidin-Fluorochrome). One or more other antibodies labeled with different fluorophores may also be added (FIGS. 7A-7C and 9). The solution of cells and antibodies is then washed using PBS or any other physiological buffer to remove unbound antibody.
# If desired, the settings of the FACS cell sorter may be adjusted using either a positive (e.g., general anti-T cell antibody) or negative control antibody. The sample of interest may be analyzed at a rate of approximately 100 million cells per hour using a high speed FACS sorter (e.g., ‘MoFlo’FACS sorter). The purified T cells may be expanded in T cell media [e.g., 10% Fetal Bovine or human autologous or AB pooled serum in RPMI-1640 or equivalent media supplemented with buffer (e.g. Hepes), glutamine, and antibiotic (e.g., gentamicin)] in the presence of a mitogen such as PHA, an anti-CD3 antibody, the 6B11 antibody, the 3A6 antibody, and/or α-GalCer antigenic stimulus CD3 monoclonal antibody (Exley et al. 1997 and 1998, supra; Wilson et al., Nature 391:177, 1998). The antibody may be in solution or plate bound. Irradiated autologous feeders and IL-2 (10-100 U/ml) may also be added immediately or added at any time point during expansion. IL-7 (˜1-10 ng/ml) and/or IL-15 (˜1-10 ng/ml) may increase invariant NK T cells yields (e.g. Wilson et al. 1998, supra; van der Vliet et al. Journal of Immunological Methods 247:61-72, 2000). Dexamethasone or a related selective immune suppressive agent (˜1 μM) may preferentially enhance the growth of invariant NK T cells while inhibiting growth of conventional T cells (e.g. Milner et al., J. Immunol. 163(5):2522-25229, 1999). The media is replaced about twice a week with fresh media. During or subsequent to expansion (e.g., 2-4 weeks after expansion has begun), the T cells may be phenotypically analyzed by FACS. This analysis may be performed by staining with 6B11, anti-Vα24, anti-Vβ11, anti-CD4, anti-CD8αβ, or anti-CD161 antibodies.
# PBMC or another tissue source is blocked with 1-10% autologous serum by mixing at 4° C. in PBS or other physiological buffer. One or more antibodies that are reactive with invariant T cells (e.g., 6B11 or 3A6 antibody) is added at a ratio of about 1-10 μg monoclonal antibody/10^7-8 PBMC is incubated for 20 minutes at 4° C. The antibody used in this method may be directly labeled with a conjugate such as FITC or biotin or the antibody may be indirectly labeled with second reagent (e.g., anti-IgG-Fluorochrome or streptavidin-Fluorochrome). One or more other antibodies labeled with different fluorophores may also be added (FIGS. 7A-7C and 9). The solution of cells and antibodies is then washed using PBS or any other physiological buffer. Magnetic beads, such as ˜10-100 μl Miltenyi MACS Microbeads Anti-mouse IgG #484 or MACS Steptavidin Microbeads #481 per 10^7-8 PBMC; 10^5-7 Dynal Anti-IgG #M450 beads per 10^7-8 PBMC are added and the solution is mix at 4° C. […] The washed, purified cells are placed into multi-wells with T cell media [10% Fetal Bovine or human autologous or AB pooled serum in RPMI-1640 or equivalent media supplemented with buffer (e.g. Hepes), glutamine, and antibiotic (e.g. gentamicin)]. The cells may be expanded using a monoclonal antibody that is directly bound to the beads or in solution. […]
# [1] = tested on: Vα24^+ Vβ11^+ invariant NK T cells; assay: Ex vivo expansion of FACS purified Vα24^+ T cells with α-GalCer and autologous irradiated PBMCs, flow cytometry; assay type: cell-based, human
# Protocol: Peripheral blood (10-20 ml) was drawn in heparin containing tubes from healthy donors and prostate cancer patients who had given their informed consent. PBMCs were isolated using Ficoll-Paque (Amersham Pharmacia, Uppsala, Sweden). Vα24 positive T cells were stained with an anti-Vα24 monoclonal antibody (C15) (Coulter, Miami, Fla.) followed by a goat anti-mouse IgG (H^+L) FITC conjugate (KPL, Gaithersburg, Md.) and were sorted by high speed FACS (Modular Flow FACS, Cytomation, Boulder, Colo.) (Dellabona et al., J. Exp. Med. 180:1171, 1994). Autologous PBMCs were irradiated (5000 rads) and used as APCs. The FACS purified Vα24^+ cells were initially co-cultured in 96 well flat bottomed plates (approximately 20,000 per well) with equal numbers of autologous irradiated PBMCs in the presence of α-GalCer (50 ng/ml, KRN7000, Kirin Brewery Co., Gunma, Japan) and recombinant IL-2 (100 U/ml) (National Cancer Institute, Bethesda, Md.). Cultures were then gradually expanded into 24 well plates using the same medium. In some cultures, human recombinant IL-12 (1 ng/ml) (Genetics Institute, Cambridge, Mass.) was added during the last week of culture.
# Phenotypic analysis of α-GalCer expanded cells was performed by two or three color flow cytometery after three to four weeks in culture. Previous reports have shown that dual staining for Vα24 and Vβ11 is a marker of invariant NK T cells, as Vα24 and Vβ11 are used very infrequently by bulk T cells (Dellabona et al., J. Exp. Med. 180:1171, 1994; Exley et al., J. Exp. Med. 186:109, 1997; Prussin and Foster J. Immunol. 159:5862, 1997). Antibodies used were anti-Vα24 PE, anti-Vβ11 FITC, anti-CD8β PE (Immunotech), anti-CD3 Cychrome, anti-CD161 PE, and anti-CD4 Cychrome (PharMingen, La Jolla, Calif.). As described previously (Exley et al., J. Exp. Med. 186:109, 1997; Exley et al., J. Exp. Med. 188:867, 1998), approximately 1×10^6 cells were suspended in 50 μl of FACS buffer (phosphate buffered saline with 1% fetal bovine serum and 0.1% NaN3) in single wells of 96 well plates (Exley et al., J. Exp. Med. 186:109, 1997; Exley et al, J. Exp. Med. 188:867, 1998). Non-specific antibody binding was blocked by pre-incubating cells with 10% human serum for 15 minutes on ice. Antibodies were then added to cell suspensions and incubated for 20 minutes on ice. Cells were washed twice with FACS buffer and analyzed using a FACScan (Becton Dickinson) with Cell Quest Software.
# Due to the small numbers of invariant NK T cells in peripheral blood, one round of ex vivo expansion was carried out to further assess the frequency and function of these cells. Invariant NK T cells from healthy donors and advanced prostate cancer patients were isolated from peripheral blood through an initial FACS purification with a Vα24 specific monoclonal antibody, followed by selective expansion in vitro for three to four weeks with α-GalCer and autologous irradiated PBMCs as a source of APCs. T cells were then analyzed by dual staining with Vα24 and Vβ11 or 6B11 monoclonal antibodies.
# [2] = addition during expansion, at the concentrations tested (FIGS. 12-17)
# [3] = expansion using α-GalCer after expansion using 6B11
molecule,measurement,setting,value
IL-15: cytokine added to T cell medium at 10 ng/ml,Yield of invariant T cells,invariant NK T cells,increased the yield of invariant T cells
same,Purity of invariant T cells,invariant NK T cells; [2],did not increase the purity of invariant T cells
phytohemagglutinin [PHA],Vα24^+ Vβ11^+ T cell population after stimulation,[1]; FACS purified Vα24^+ T cells stimulated with mitogen (FIG. 20A),yielded only a minor population of Vα24^+ Vβ11^+ T cells
"CCCCCCCCCCCCCCCCCCCCCCCCCC(=O)N[C@@H](CO[C@H]1O[C@H](CO)[C@H](O)[C@H](O)[C@H]1O)[C@H](O)[C@H](O)CCCCCCCCCCCCCC [α-GalCer, α-galactosylceramide]",Invariant NK T cells among expanded cells,[1]; androgen ablation refractory prostate cancer patient (FIG. 21B),13.6%
same,Invariant NK T cells among expanded cells,[1]; androgen ablation treated prostate cancer patient in remission (FIG. 21C),75%
same,Invariant NK T cells among expanded cells,[1]; healthy donor (FIG. 21A),98.5%
same,Vα24^+ Vβ11^+ population of total cells,"[1]; healthy donor, α-GalCer and autologous irradiated PBMCs (FIG. 20B)",94.4%
same,"Recovery of Vα24^+ Vβ11^+ invariant NK T cells, mean",[1]; healthy donors (FIG. 21D),> 80%
same,"Recovery of Vα24^+ Vβ11^+ invariant NK T cells, mean",[1]; series of advanced androgen independent prostate cancer patients (FIG. 21D),10%
same,Expanded Vα24^+ Vβ11^+ T cells expressing CD161,"[1]; series of healthy donors, each donor",> 70%
same,Number of invariant T cells,invariant NK T cells; [3],did increase the number of invariant T cells
same,Purity of invariant T cells,invariant NK T cells; [3],did not improve the purity of invariant T cells
"IL-7: cytokine added to T cell medium at 10 ng/ml (protein, UniProt P13232 26-177, looked up) Interleukin-7: DCDIEGKDGKQYESVLMVSIDQLLDSMKEIGSNCLNNEFNFFKRHICDANKEGMFLFRAARKLRQFLKMNSTGDFDLHLLKVSEGTTILLNCTGQVKGRKPAALGEAQPTKSLEENKSLKEQKKLNDLCFLKRLLQEIKTCWNKILMGTKEH",Yield of invariant T cells,invariant NK T cells,increased the yield of invariant T cells
same,Purity of invariant T cells,invariant NK T cells; [2],did not increase the purity of invariant T cells
